Results: the supplement of paper PMC10307832

Experiments:
Experiment in all cases: relative viability (nuclei count vs DMSO), 5 days (fraction); higher = more cells survive
NCI-H2347 = test system: NCI-H2347
Method in brief: (§1)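 Values are medians from duplicate plates. Each reflects relative viability, defined as the nuclei count of treated wells over that of vehicle wells. Lung cancer cell lines in 1536-well plates were pin-tool dosed one day after seeding with one drug alone or with a fixed anchor-drug dose plus five library-drug doses (not always all listed) in √10 steps, then fixed, stained and imaged at 4× after 5 days.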

COR-L23 = test system: COR-L23
Method in brief: as §1

LC-2-ad = test system: LC-2-ad
Method in brief: as §1

HOP-62 = test system: HOP-62
Method in brief: as §1

NCI-H520 = test system: NCI-H520
Method in brief: as §1

NCI-H1651 = test system: NCI-H1651
Method in brief: as §1

NCI-H2085 = test system: NCI-H2085
Method in brief: as §1

NCI-H838 = test system: NCI-H838
Method in brief: as §1

NCI-H1666 = test system: NCI-H1666
Method in brief: as §1

NCI-H23 = test system: NCI-H23
Method in brief: as §1

LCLC-103H = test system: LCLC-103H
Method in brief: as §1

SMILES: O=c1[nH]c2ccccc2n1C1CCN(CCCC(c2ccc(F)cc2)c2ccc(F)cc2)CC1 [Pimozide] + Nc1ncn([C@H]2C[C@H](O)[C@@H](CO)O2)c(=O)n1 [Decitabine] (partner 2 µM)
- relative viability (NCI-H2347; first compound 0.8 µM): 0.574
- relative viability (NCI-H2347; first compound 2.53 µM): 0.594
- relative viability (NCI-H2347; first compound 8 µM): 0.559
- relative viability (COR-L23; first compound 0.08 µM): 0.409
- relative viability (COR-L23; first compound 0.253 µM): 0.446
- relative viability (COR-L23; first compound 0.8 µM): 0.411
- relative viability (COR-L23; first compound 2.53 µM): 0.424
- relative viability (COR-L23; first compound 8 µM): 0.495
- relative viability (LC-2-ad; first compound 0.08 µM): 0.776
- relative viability (LC-2-ad; first compound 0.253 µM): 0.697
- relative viability (LC-2-ad; first compound 0.8 µM): 0.854
- relative viability (LC-2-ad; first compound 2.53 µM): 0.868
- relative viability (LC-2-ad; first compound 8 µM): 0.837
- relative viability (HOP-62; first compound 0.08 µM): 0.231
- relative viability (HOP-62; first compound 0.253 µM): 0.228
- relative viability (HOP-62; first compound 2.53 µM): 0.245
- relative viability (HOP-62; first compound 8 µM): 0.244
- relative viability (NCI-H520; first compound 0.08 µM): 0.455
- relative viability (NCI-H520; first compound 0.253 µM): 0.428
- relative viability (NCI-H520; first compound 0.8 µM): 0.453
- relative viability (NCI-H520; first compound 2.53 µM): 0.519
- relative viability (NCI-H520; first compound 8 µM): 0.613
- relative viability (NCI-H1651; first compound 0.08 µM): 0.597
- relative viability (NCI-H1651; first compound 0.253 µM): 0.507
- relative viability (NCI-H1651; first compound 0.8 µM): 0.719
- relative viability (NCI-H1651; first compound 2.53 µM): 0.588
- relative viability (NCI-H1651; first compound 8 µM): 0.611
- relative viability (NCI-H2085; first compound 0.08 µM): 0.545
- relative viability (NCI-H2085; first compound 0.253 µM): 0.544
- relative viability (NCI-H2085; first compound 0.8 µM): 0.573
- relative viability (NCI-H2085; first compound 2.53 µM): 0.551
- relative viability (NCI-H2085; first compound 8 µM): 0.585
- relative viability (NCI-H838; first compound 0.08 µM): 0.487
- relative viability (NCI-H838; first compound 0.253 µM): 0.395
- relative viability (NCI-H838; first compound 0.8 µM): 0.42
- relative viability (NCI-H838; first compound 2.53 µM): 0.43
- relative viability (NCI-H838; first compound 8 µM): 0.469
- relative viability (NCI-H1666; first compound 0.08 µM): 0.688
- relative viability (NCI-H1666; first compound 0.253 µM): 0.738
- relative viability (NCI-H1666; first compound 0.8 µM): 0.696
- relative viability (NCI-H1666; first compound 2.53 µM): 0.695
- relative viability (NCI-H1666; first compound 8 µM): 0.784
- relative viability (NCI-H23; first compound 0.08 µM): 0.304
- relative viability (NCI-H23; first compound 0.253 µM): 0.301
- relative viability (NCI-H23; first compound 0.8 µM): 0.294
- relative viability (NCI-H23; first compound 2.53 µM): 0.333
- relative viability (NCI-H23; first compound 8 µM): 0.325
- relative viability (LCLC-103H; first compound 0.08 µM): 0.765
- relative viability (LCLC-103H; first compound 0.253 µM): 0.712
- relative viability (LCLC-103H; first compound 0.8 µM): 0.674
- relative viability (LCLC-103H; first compound 2.53 µM): 0.691
- relative viability (LCLC-103H; first compound 8 µM): 0.707
